The source of these data is ChEMBL document CHEMBL4184171, “Design and synthesis of a biaryl series as inhibitors for the bromodomains of CBP/P300” (Bioorg Med Chem Lett, 2018).

A short description of series [1]: in vitro. Particulars: human, hepatocytes.
Description: Hepatic clearance in human hepatocytes
A short description of series [2]: in vivo. Particulars: CD-1, mouse, po, 5 mg/kg.
A short description of series [3]: in vivo. The following applies: CD-1, mouse, iv, 1 mg/kg.
Description: Volume of distribution at steady state in CD-1 mouse at 1 mg/kg, iv or 5 mg/kg, po
A short description of series [4]: physchem. Particulars: buffer, pH 7.4.
Description: Kinetic solubility in PBS buffer at pH 7.4
Series [5] addresses Bromodomain-containing protein 4 (Homo sapiens, UniProt O60885).
Description: Inhibition of BRD4 bromodomain 1 (unknown origin) by TR-FRET assay
The nature of series [6]: in vitro. The following applies: mouse, microsomes.
Description: Clearance in mouse liver microsomes
Series [7] is described as follows: in vitro. The following applies: rat, plasma.
Description: Protein binding in rat plasma
Series [8] can be described thus: in vitro. The following applies: mouse, plasma.
Description: Protein binding in mouse plasma
Series [9] in a line: in vivo. The following applies: CD-1, mouse.
Description: Half life in CD-1 mouse at 1 mg/kg, iv or 5 mg/kg, po
Series [10] is described as follows: in vitro. Particulars: human, microsomes.
Description: Clearance in human liver microsomes
Series [11] can be described thus: in vitro. Particulars: human, plasma.
Description: Protein binding in human plasma
A short description of series [12]: in vitro. Particulars: rat, hepatocytes.
Description: Hepatic clearance in rat hepatocytes
A short description of series [13]: in vitro. Particulars: dog, MDCK.
Description: Apparent permeability from apical to basolateral side in MDCK cells
A short description of series [14]: in vitro. Particulars: rat, microsomes.
Description: Clearance in rat liver microsomes
A short description of series [15]: in vivo. Particulars: CD-1, mouse, iv, 1 mg/kg. The source holds these as a separate data set.
Description: Clearance in CD-1 mouse at 1 mg/kg, iv or 5 mg/kg, po
Series [16] in a line: in vitro. The following applies: mouse, hepatocytes.
Description: Hepatic clearance in mouse hepatocytes

pIC50: −log10 of the molar value. Converted amounts (≈) assume the structure as drawn.

`CC(=O)N1CCc2c(c(-c3cccc4cc(-c5cnn(C)c5)ncc34)nn2C2CCOCC2)C1`: the CLhep predicted in series [1] is less than 6 mL/min/kg; in series [6], 20 mL/min/kg; in [10] it was 8 to 8.3 mL/min/kg; in series [12], 14 mL/min/kg; in series [14], 18 mL/min/kg; in series [16], less than 21 mL/min/kg. Besides, the bioavailability in series [2] worked out at 67%. In [3], the volume of distribution (Vd) came out at 1.3 L/kg. Besides, the kinetic solubility in series [4] was found to be 92 µM (≈ 42 µg/mL). The compound further had a pIC50 in [5] of 5.60. Further, the fraction unbound in series [7] is 0.24; in [8], 0.15; in [11], 0.3. In [9], this compound showed a half-life of 1.6 h. The compound further gave a Papp A→B in [13] of 10 ×10⁻⁶ cm/s. In addition, the clearance in series [15] turned out to be 11 mL/min/kg.
With `CC(=O)N1CCc2c(c(-c3cccc4c[nH]c(=O)cc34)nn2C2CCOCC2)C1`, the negative logarithm of the IC50 (pIC50) in series [5] was less than 4.70.
As for `CC(=O)N1CCc2c(c(-c3cccc4cc(-c5cn(C)nc5C#N)ncc34)nn2C2CCOCC2)C1`, the negative-log IC50 (pIC50) in series [5] was 5.42. In addition, the values for the CLhep predicted in series [6], in [10] and in [14] were 32 mL/min/kg, 11 mL/min/kg and 45 mL/min/kg, respectively.
`CC(=O)N1CCc2c(c(-c3cc(CO)cc4ccncc34)nn2C2CCOCC2)C1` had a pIC50 in series [5] of less than 4.70.
The compound `CC(=O)N1CCc2c(c(-c3cncc4ccccc34)nn2C2CCOCC2)C1` gave a pIC50 in series [5] of less than 4.70.
On the same count and under the same terms, for `COc1ccc(-c2nn(C3CCOCC3)c3c2CN(C(C)=O)CC3)c2cnccc12` the value was 4.96.
